The test system of one data set is rabbits. The experiment in a line: Topical tolerability study in rabbits, three times weekly for 4 weeks (Example 2). It counts as in vivo, rabbit. As to the method:
The dose used is again 2.5/mg/kg/d (30 mg/m2/d) FR901228 or vehicle in AC, but is applied topically, 4 hrs. a day, for 4 weeks, three times weekly. The study parameters include weekly clinical pathology and histopathology takes place at days 27 and 41. The compositions are applied to substantially all of the rabbit's back. In the case of a human patient or other diseased subject, the composition can be applied to disease-affected and/or non-affected surface areas.

For data set [1] the following is noted: intravenous infusion over 4 hours on days 1 and 5 of a 21-day cycle; cited from earlier work.
Data set [2] has as its system New Zealand white rabbits. The experiment in a line: Topical toxicity study in rabbits, 4 hours daily application (Example 1). The conditions noted are these: 2.5 mg/kg topically for 14 days.
Protocol: A study uses New Zealand white rabbits to determine topical toxicity of the depsipeptide FR901228 when applied topically in either Cetaphil° lotion (CL) or Aquaphor cream (AC).
The dose of depsipeptide is 2.5 mg/kg/day (30 mg/m2/d); controls receive vehicle (Aquaphor or Cetaphil) in place of depsipeptide. A highly intense dosing regimen is employed to study toxicity. The study is designed for application of the respective topical composition to the rabbits for 4 hours daily for 28 days. The four-hour application is accomplished by removing the applied composition approximately four hours after application. Four groups of rabbits (2 rabbits/sex/group) are used with two control and two experimental groups. The control groups receive carrier alone (CL or AC) and the experimental groups receive FR901228 in the respective carriers. The experimental parameters include weekly testing of clinical pathology and plasma drug levels. Histopathology is performed at days 15 and 28.
[3] abbreviates: FR901228 in AC, 2.5 mg/kg/d topical, 4 hrs a day, 4 weeks.

Consider `C/C=C1\NC(=O)[C@H]2CSSCC/C=C/[C@H](CC(=O)N[C@H](C(C)C)C(=O)N2)OC(=O)[C@H](C(C)C)NC1=O` [FR901228, (E)-(1S, 4S, 10S, 21R)-7-[(Z)-ethylidene]-4,21-diisopropyl-2-oxa-12,13-dithia-5,8,20,23-tetraazabicyclo [8,7,6]-tricos-16-ene-3,6,19,22-pentanone], for which, in the data set with rabbits (setting [3]), the Draize scoring result is on record as “slight to well-defined” and the “onset of red skin at the application site” value is 9 days. Further, in the data set with rabbits (day 27, FR901228 in AC), the “pathology: microscopic lesions at the application site” value was “ulcers of minimal severity”. In addition, the “increased FBN” value with rabbits (days 4, 11, and 27, FR901228 in AC) is on record as 1.6-2 ×. Also, in data set [1], the maximum tolerated dose is recorded as 17.8 mg/m2. The “skin toxicity at the application site (conclusion)” value in data set [2] is given as “significant skin toxicity at the application site”.

The values are drawn from patent US20080292616A1, “Topical Formulations of Histone Deacetylase Inhibitors and Methods Using the Same” (Government of the United of America, Represented by the …, priority 2005, published 2008).
